Assay results from patent US20150139936A1, “DOSAGE AND ADMINISTRATION OF BISPECIFIC SCFV CONJUGATES IN COMBINATION WITH ANTI-CANCER THERAPEUTICS” (Merrimack Pharmaceuticals, Inc., priority 2012, published 2015).

Experiments:
[1] = cited from earlier work
[2] = oral; cited from earlier work
[3] = Pre-clinical combination efficacy of MM-111; conditions: with lapatinib, trastuzumab, paclitaxel or docetaxel

For `CC(=O)O[C@@]12CO[C@@H]1C[C@H](O)[C@@]1(C)C(=O)[C@H](O)C3=C(C)[C@@H](OC(=O)[C@H](O)[C@@H](NC(=O)OC(C)(C)C)c4ccccc4)C[C@@](O)([C@@H](OC(=O)c4ccccc4)[C@H]21)C3(C)C` [docetaxel, 1,7β,10β-trihydroxy-9-oxo-5β,20-epoxytax-11-ene-2α,4,13α-triyl 4-acetate 2-benzoate 13-{(2R,3S)-3-[(tert-butoxycarbonyl)amino]-2-hydroxy-3-phenylpropanoate}], the water solubility [1] is given as “more water soluble than paclitaxel”.
In the case of `CS(=O)(=O)CCNCc1ccc(-c2ccc3ncnc(Nc4ccc(OCc5cccc(F)c5)c(Cl)c4)c3c2)o1` [lapatinib], the “bioavailability with food consumption” value [2] is listed as “increased”.
In the case of “MM-111: bispecific anti-ErbB2/anti-ErbB3 antibody, scFv HSA conjugate, SEQ ID NO:1”, the “combination effect (efficacy)” value [3] is reported as “additive”.
